Results: patent publication US20130005696A1, “BUFADIENOLIDE DERIVATIVES, PREPARING PROCESS THEREOF, COMPOSITION COMPRISING THE SAME AND THE USE THEREOF” (priority 2011, published 2013)
Where two headings read alike, the source gives them in different places.

Columns and labels:
[1] = tested on: HepG2 human-derived tumor cell line; experiment: In vitro antitumor activity assay (SRB), HepG2; format: cell-based; settings: HepG2, 72 h, Table 3
[2] = tested on: NCI-H460 human lung carcinoma cell line; experiment: In vitro antitumor activity assay (SRB), NCI-H460; format: cell-based; settings: NCI-H460, 72 h, Table 3
Text: (§1) HeLa human cervical carcinoma cell line, A-549 human non-small cell lung carcinoma cell line, NCI-H2228 human lung carcinoma cell line, NCI-H460 human lung carcinoma cell line, MDA-MB-231 human breast carcinoma cell line, MCF-7 human breast carcinoma cell line, Bel-7402 human hepatic carcinoma cell line, Hep3B human hepatic carcinoma cell line, QGY-7703 human hepatic carcinoma cell line, MV-4-11 human leukemic cell line, DAUDI human leukemic cell line, Jurkat human leukemic cell line, A498 renal carcinoma cell line, LoVo human colon carcinoma cell line, HCT1116 human colon carcinoma cell line, A431 human skin carcinoma cell line, PANC-1 human pancreatic carcinoma cell line, U87-MG human brain carcinoma cell line, SH-SY5Y human brain carcinoma cell line, RPMI-8226 human bone carcinoma cell line, HT1080 human fibrosarcoma cell line, PC-3 human prostatic carcinoma cell line, AGS human gastric adenocarcinoma cell line, and BGC-823 human gastric adenocarcinoma cell line were purchased from the Cell Bank of the Chinese Academy of Sciences.
(§2) The positive control is bufalin (formulated according to the common method), its purity is 98% or more by HPLC-UV and its structure is identified by NMR. The compounds to be tested and the positive control were diluted with normal saline with a concentration gradient of 10^−4 M, 10^−5 M, 10^−6 M, 10^−7 M and 10^−8 M.
(§3) According to cell growth rate, tumor cells in the log phase of growth were seeded into 96-well culture plates at 100 μL per well, and allowed to attach for 24 hours, followed by addition of a test compound or positive control at 10 μL per well. For each concentration, the test was carried out in triplicate wells. […] Finally, Tris solution was added at 150 μL per well, and the absorbance (A) was measured at a wavelength of 515 nm using a microplate reader. The growth inhibition on tumor cell proliferation was calculated according to the following equation:
(§4) Growth Inhibition (%)=[(Absorbance of negative control−Absorbance of blank)−(Absorbance of sample−Absorbance of blank)]/(Absorbance of negative control−Absorbance of blank)×100% […]

[3] = tested on: NCI-H2228 human lung carcinoma cell line; experiment: In vitro antitumor activity assay (SRB), NCI-H2228; format: cell-based; settings: NCI-H2228, 72 h, Table 3
Text: as §1, §2, §3, §4

[4] = tested on: MV-4-11 human leukemic cell line; experiment: In vitro antitumor activity assay (SRB), MV-4-11; format: cell-based; settings: MV-4-11, 72 h, Table 3
Text: as §1, §2, §3, §4

[5] = tested on: AGS human gastric adenocarcinoma cell line; experiment: In vitro antitumor activity assay (SRB), AGS; format: cell-based; settings: 72 h, Table 3
Text: as §1, §2, §3, §4

[6] = tested on: HT1080 human fibrosarcoma cell line; experiment: In vitro antitumor activity assay (SRB), HT1080; format: cell-based; settings: HT1080, 72 h, Table 3
Text: as §1, §2, §3, §4

[7] = tested on: U87-MG human brain carcinoma cell line; experiment: In vitro antitumor activity assay (SRB), U87-MG; format: cell-based; settings: 72 h, Table 3
Text: as §1, §2, §3, §4

[8] = tested on: MCF-7 human breast carcinoma cell line; experiment: In vitro antitumor activity assay (SRB), MCF-7; format: cell-based
Text: as §1, §2
(§5) According to cell growth rate, tumor cells in the log phase of growth were seeded into 96-well culture plates at 100 μL per well, and allowed to attach for 24 hours, followed by addition of a test compound or positive control at 10 μL per well. For each concentration, the test was carried out in triplicate wells. Solvent control wells with addition of normal saline into cell culture and a blank well containing only cell culture medium but without cells for zeroing were also included. The tumor cells were incubated for 72 hours at 37° C. under 5% CO2, and then the culture medium (RPMI-1640) was removed. The cells were fixed with 10% cool TCA by incubating for 1 h at 4° C., washed with distilled water for 5 times, and dried naturally in the air. A solution of SRB (Sigma) (4 mg/mL) in 1% glacial acetic acid was added at 100 μL per well, and the cells were stained for 15 minutes at room temperature, and the supernatant was discarded. The plates were washed for 5 times with 1% acetic acid, and dried in air. Finally, Tris solution was added at 150 μL per well, and the absorbance (A) was measured at a wavelength of 515 nm using a microplate reader. The growth inhibition on tumor cell proliferation was calculated according to the following equation:
(§6) Growth Inhibition (%)=[(Absorbance of negative control−Absorbance of blank)−(Absorbance of sample−Absorbance of blank)]/(Absorbance of negative control−Absorbance of blank)×100%
(§7) Drug concentration: 10 μM, 1 μM, 0.1 μM, 10 nM, 1 nM, 0.1 nM.
(§8) IC50 was fitted by GraphPad Prism 4.

[9] = tested on: A498 renal carcinoma cell line; experiment: In vitro antitumor activity assay (SRB), A498; format: cell-based, human; settings: A498, 72 h, Table 3
Text: as §1, §2, §3, §4

[10] = tested on: human non-small cell lung carcinoma A549 xenograft; experiment: In vivo therapeutic effect against A549 xenograft in nude mice; settings: for inhibition of growth of human lung carcinoma A549 xenograft, in words: A549 xenograft in nude mice, bufalin at 1.6 mg/kg; for Inhibition Rate (%) / Tumor Weight(g) Mean ± SE: A549 xenograft, after 21 days
Procedure: This experiment is to evaluate the in vivo therapeutic effects of compounds bufalin, II1D-06.HCl, II1E-01.HCl and II1B-02.HCl against human-derived lung carcinoma A549 cell xenograft in nude mice.
Solvent control: 4% DMSO & 2% Tween-80 & 5% PEG-400 solution in normal saline
Compounds to be tested: bufalin, II1B-02.HCl, II1E-01.HCl, II1D-06.HCl
Formulating method: the compound was dissolved with DMSO into a stock solution, which was then diluted into an injection with a final DMSO concentration of 4%.
Positive control: Rapamycin Formulating method: it was formulated into an injection with a final DMSO concentration of 4%.
After the tumor size reaches about 200 mm^3, the mice bearing the tumor were grouped randomly into 8 groups according to the tumor size, including the groups of solvent control, positive control rapamycin 5 mg/kg, II1E-01.HCl 2 mg/kg, II1E-01.HCl 4 mg/kg, II1E-01.HCl 6 mg/kg, II1B-02.HCl 4 mg/kg, II1D-06.HCl 4 mg/kg, bufalin 1.6 mg/kg, wherein the dosage selection is based on that the maximum tolerable dosage is 1.6 mg/kg for bufalin and 6 mg/kg for II1E-01.HCl. Rapamycin was administered intravenously once a week (QW) and the other groups were administered intraperitoneally once every other day (QOD). The tumor was weighted after 21 days to calculate the inhibition rate. The equation for calculating inhibition rate (IR) is IR=(WC−WT)/WC×100%, wherein, WC represents the tumor weight of the control group, and WT represents the tumor weight of the treating group.

[11] = tested on: PANC-1 human pancreatic carcinoma cell line; experiment: In vitro antitumor activity assay (SRB), PANC-1; format: cell-based; settings: PANC-1, 72 h, Table 3
Text: as §1, §2, §3, §4

[12] = tested on: PC-3 human prostatic carcinoma cell line; experiment: In vitro antitumor activity assay (SRB), PC-3; format: cell-based
Text: as §1, §2, §5, §6, §7, §8

C[C@]12CC[C@H](OC(=O)NC3CCNCC3)C[C@H]1CC[C@@H]1[C@@H]2CC[C@]2(C)[C@@H](c3ccc(=O)oc3)CC[C@]12O.Cl [II1E-01•HCl]
IC50 [1]: 0.33 ± 0.02 nM | IC50 [2]: 0.67 ± 0.03 nM | IC50 [3]: 1.62 ± 0.5 nM | IC50 [4]: 0.64 ± 0.11 nM | IC50 [5]: 9.35 ± 0.53 nM | IC50 [6]: 2.34 ± 0.1 nM | IC50 [7]: 1.98 ± 0.3 nM | IC50 ([8]; MCF-7, 72 h, Table 3, read-out: IC50 (72 h), MCF-7): 10.8 ± 1.08 nM | IC50 [9]: 0.37 ± 0.05 nM | inhibition of growth of human lung carcinoma A549 xenograft, in words [10]: significantly inhibit the growth | Inhibition Rate (%) ([10]; 2 mg/kg ip QOD): 32.43% | Tumor Weight(g) Mean ± SE ([10]; 2 mg/kg ip QOD): 1.1375 ± 0.1044 g | Inhibition Rate (%) ([10]; 4 mg/kg ip QOD): 70.57% | Tumor Weight(g) Mean ± SE ([10]; 4 mg/kg ip QOD): 0.4953 ± 0.0301 g | Inhibition Rate (%) ([10]; 6 mg/kg ip QOD): 87.70% | Tumor Weight(g) Mean ± SE ([10]; 6 mg/kg ip QOD): 0.2070 ± 0.0193 g | IC50 [11]: 0.57 ± 0.06 nM | IC50 ([12]; PC-3, 72 h, Table 3, read-out: IC50 (72 h), PC-3): 0.3 ± 0.08 nM

C[C@]12CC[C@H](O)C[C@H]1CC[C@@H]1[C@@H]2CC[C@]2(C)[C@@H](c3ccc(=O)oc3)CC[C@]12O [bufalin, reference compound]
IC50 ([1]; Homo sapiens): 6.02 ± 0.71 nM | IC50 ([2]; Homo sapiens): 6.89 ± 0.87 nM | IC50 ([3]; Homo sapiens): 16.1 ± 2.51 nM | IC50 ([4]; Homo sapiens, MV4-11): 6.26 ± 2.22 nM | IC50 ([5]; Homo sapiens): 51.8 ± 1.34 nM | IC50 ([6]; Homo sapiens, HT-1080): 11.3 ± 0.38 nM | IC50 ([7]; Homo sapiens, U-87 MG): 13 ± 1.74 nM | IC50 ([8]; Homo sapiens, MCF7, MCF-7, 72 h, Table 3, read-out: IC50 (72 h), MCF-7): 45.9 ± 5.18 nM | IC50 ([8]; Homo sapiens, MCF7, MCF-7, Table 2, read-out: IC50, inhibition of cell proliferation, MCF-7): 28.8 ± 3.71 nM | IC50 ([9]; Homo sapiens): 6.41 ± 0.75 nM | inhibition of growth of human lung carcinoma A549 xenograft, in words [10]: did not express strong inhibitory activity | Inhibition Rate (%) ([10]; 1.6 mg/kg ip QOD): 8.99% | Tumor Weight(g) Mean ± SE ([10]; 1.6 mg/kg ip QOD): 1.5320 ± 0.0624 g | IC50 ([11]; Homo sapiens): 9.88 ± 0.27 nM | IC50 ([12]; Homo sapiens, Prostatic carcinoma cell, PC-3, 72 h, Table 3, read-out: IC50 (72 h), PC-3): 5 ± 0.45 nM | IC50 ([12]; Homo sapiens, Prostatic carcinoma cell, PC-3, Table 2, read-out: IC50, inhibition of cell proliferation, PC-3): 17.3 ± 2.76 nM
